Calls of active or inactive are those of the source.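 The calls were made as follows: active = fitted half-maximal concentration for a cytotoxic signal drop no higher than ten times the top valid dose tested; inconclusive = flat curve between -70 and -30 percent, or an unreliable fit; inactive = flat within 30 percent, signal rise, or potency beyond limit.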
Test: HeLa cell cytotoxicity, dose response, cytotoxicity control, 24 h, cherry-picked samples (AID 504726);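 also: 0% = DMSO neutral controls and -100% = mitoxantrone positive controls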
Settings: HeLa viability, CellTiter-Glo ATP luminescence, 24 h; at 35 µM (top of the series)

SMILES	activity change, negative = cytotoxicity
O=c1[nH]c(=O)n(C2CCCCC2)c(O)c1C=Nc1ccc(N2CCOCC2)cc1	-11.5% (inactive)
Cc1cc(/C=N/Nc2ccc([N+](=O)[O-])cn2)c(C)n1-c1cccc(C(=O)O)c1	-4.63% (inactive)
CC(OC(=O)CCN1C(=O)C2CC=CCC2C1=O)C(=O)Nc1ccc(F)cc1 (stereo unspecified)	-6.8% (inactive)
CCOC(=O)C1(Cc2cccc(F)c2)CCN(Cc2c(C)nn(CC)c2C)CC1	0.828% (inactive)
NNC(=O)CC1=NNC(=O)C1	-0.701% (inactive)
COc1ccc(/C=N/NC(=O)c2ccc3nc[nH]c3c2)c(OC)c1	3.07% (inactive)
COc1ccc(CC(=O)O/N=C(\N)c2ccc(OC)cc2)cc1	-11.5% (inactive)
CSc1n[nH]c(=O)n1-c1cccc(Cl)c1	12.8% (inactive)
O=C(CC1CCCC1)N1CCN(S(=O)(=O)c2ccccc2)CC1	-13.4% (inactive)
CCN(C(=O)c1cccc(S(=O)(=O)N2CCc3ccccc32)c1)C1CCS(=O)(=O)C1 (stereo unspecified)	-1.74% (inactive)
N=C1/C(=C/c2ccc(-c3cccc(C(=O)O)c3)o2)C(=O)N=C2SC(CC(=O)N3CCOCC3)=NN12	-4.55% (inactive)
O=C(Nc1ccc2c(c1)OCO2)N1CCCc2ccccc21	-15.9% (inactive)
CCCOc1ccc(C=Nc2ccc(OC)c(S(=O)(=O)N3CCOCC3)c2)c(O)c1	19% (inactive)
Cc1ccc(C(=O)CCC(=O)Nc2ncccc2C)cc1	-3.79% (inactive)
Cc1ccc(NC(=O)CN(C)C(=O)c2nn(C)c(=O)c3ccccc23)cc1	-13.7% (inactive)
c1ccc2[nH]c3cc4ncnc4cc3nc2c1	5.9% (inactive)
COc1ccccc1CNC(=O)CCS(=O)(=O)c1cccs1	4.31% (inactive)
Nc1ccc2c(O)cc(S(=O)(=O)O)cc2c1	-11% (inactive)
Nc1ccc(-c2c3ccc(=O)cc-3oc3cc(O)ccc23)cc1C(=O)O	-1.65% (inactive)
O=C(c1cccc(S(=O)(=O)NCc2ccccc2)c1)N1CCN(c2ccccc2Cl)CC1	0.089% (inactive)
O=C(O)c1ccccc1NS(=O)(=O)c1ccc(N/N=C/c2ccc(O)c(O)c2)c([N+](=O)[O-])c1	-10.9% (inactive)
COc1ccc(-c2nc(C(=O)O)cs2)cc1OC	-5.71% (inactive)

SMILES	activity change, negative = cytotoxicity
CCCc1cc(=O)oc2cc(C)cc(OCC(=O)O)c12	-7.49% (inactive)
CSc1nc(SC(C)C(=O)O)c2c3c(sc2n1)COC(C)(C)C3 (stereo unspecified)	-9.35% (inactive)
Cc1c(C)n(Cc2ccccc2)c2ncnc(Cl)c12	-17.6% (inactive)
O=C1/C(=C/c2ccco2)Oc2c1ccc(O)c2CN1CCCCC1	4.96% (inactive)
O=C(CCn1c(=S)oc2ccccc21)N1CCN(c2ccc(F)cc2)CC1	2.32% (inactive)
Cc1cccc(C)c1NC(=O)CSc1nnc(-c2ccco2)c(-c2ccco2)n1	-6.45% (inactive)
CCCc1nnc(NC(=O)CCC(=O)NCc2ccc(OC)cc2)s1	-1.54% (inactive)
CCOc1ccc2noc3c2c1C(=O)c1ccccc1-3	-3.75% (inactive)
COc1cc2c(cc1OC)CN(C(=O)c1ccc(S(=O)(=O)N3CCCC3)cc1)CC2	1.87% (inactive)
C=CC1=C(C(=O)O)N2C(=O)[C@@H](NC(=O)/C(=N/OCC(=O)O)c3csc(N)n3)[C@H]2SC1	-13.9% (inactive)
Cc1noc(C)c1C(=O)N1CCN(c2ccc(OCc3ccccc3)cc2)CC1	-3.67% (inactive)
Fc1ccc(-c2cc(C(F)(F)F)nc(-n3cc(Cl)cn3)n2)cc1	-12% (inactive)
COc1cccc(C2CC(=O)Nc3cc4c(cc32)CCC4)c1 (stereo unspecified)	14.6% (inactive)
O=C(CCCN1C(=O)/C(=C\c2ccco2)SC1=S)Nc1ccc(O)cc1C(=O)O	4.85% (inactive)
C/C(=N/NC(=O)c1ccncc1)c1cc2ccc(O)cc2oc1=O	3.38% (inactive)
COc1ccc(Br)cc1CNC(=O)CCCc1cn(C)c2ccccc12	-12.1% (inactive)
O=C(O)/C=C/C(=O)Nc1ccc(Cc2ccc(NC(=O)/C=C/C(=O)O)cc2)cc1	6.62% (inactive)
COc1ccc(C2C(C(=O)c3cccs3)=C(O)C(=O)N2c2nncs2)cc1 (stereo unspecified)	-14.2% (inactive)
COC(=O)c1sc(C(F)(F)F)c(-c2ccccc2)c1S(=O)(=O)N1CCOCC1	-14.2% (inactive)
CC(C(=O)Nc1ccc(C(=O)O)c(O)c1)N1C(=O)/C(=C\c2ccco2)SC1=S (stereo unspecified)	-7.47% (inactive)
COc1cccc2c1NC(C(=O)O)C1CC=CC21 (stereo unspecified)	-12.8% (inactive)
COc1cc(SC)ccc1C(=O)OCC(=O)N1CCN(C(C)=O)CC1	11.9% (inactive)

SMILES	activity change, negative = cytotoxicity
CCOCCCn1c(SCC(=O)NC(C)(C)C)nc2ccccc2c1=O	-18.7% (inactive)
Cc1ccc(NC(=O)CN2C(=O)N/C(=C/c3cc(C)n(-c4ccc(C(=O)O)cc4)c3C)C2=O)cc1	-5.94% (inactive)
O=C(Nc1ccccc1F)c1coc(=O)c(Br)c1	-20.2% (inactive)
COCCN(CCOC)Cc1c(O)ccc2c1O/C(=C\c1ccco1)C2=O	-13.7% (inactive)
Cc1cc(=O)oc2cc(OCC(=O)N3CCN(Cc4ccc5c(c4)OCO5)CC3)ccc12	-5.71% (inactive)
O=C(COc1ccccc1Cc1ccccc1)NCCCN1CCOCC1	-9.39% (inactive)
CCN(CC)C(=O)C1c2ccccc2Oc2ccccc21	-12.1% (inactive)
CCc1noc(C)c1C(=O)N1CCCC(N2CCN(c3ccc(F)cc3)CC2)C1 (stereo unspecified)	-1.12% (inactive)
COc1ccc(N(CC(=O)NCc2ccc3c(c2)OCO3)C(=O)c2csnn2)cc1	3.04% (inactive)
CC(=O)OCCn1c2nc(=O)[nH]c(=O)c-2nc2cc(C)c(C)cc21	-8.08% (inactive)
Fc1ccc(C2=CC(c3ccc(Br)o3)n3ncnc3N2)cc1 (stereo unspecified)	-14.5% (inactive)
CCN(CC)C(=O)c1ccc2c(c1)C1C=CCC1C(C(=O)O)N2 (stereo unspecified)	-7.76% (inactive)
COc1[nH]c(/N=C/c2ccccc2)c(C#N)c1C#N	-1.43% (inactive)
Cc1ccc(C)c(N2CCN(C(=O)c3cc4ccccn4n3)CC2)c1	3.79% (inactive)
O=S(=O)(O)c1cc(O)c2cc(Nc3ccccc3)ccc2c1	-1.35% (inactive)
CCOC(=O)C1Nc2ccc(C(=O)O)cc2C2C=CCC12 (stereo unspecified)	-9.32% (inactive)
COCCNC(=O)Cn1cc(/C=C2\C(=O)NC(=O)N(c3cccc(C)c3C)C2=O)c2ccccc21	-12.7% (inactive)
COc1ccc(C2(CNC(=O)CCC(=O)O)CCCC2)cc1OC	-16% (inactive)
C=C1c2cccc(O)c2C(O)=C2C(=O)[C@]3(O)C(O)=C(C(N)=O)C(=O)[C@@H](N(C)C)[C@@H]3[C@@H](O)[C@H]12	-2.76% (inactive)
CCN(CC(=O)Nc1c(F)cccc1F)C(=O)CCCc1cccs1	-23.5% (inactive)
S=c1[nH]nc([C@@H]2C[C@H]2c2ccccc2)n1-c1ccccc1Cl	-6.51% (inactive)
CCCn1c(SCC(=O)NCc2cccs2)nc2c1c(=O)n(C)c(=O)n2C	7.8% (inactive)

SMILES	activity change, negative = cytotoxicity
CC(=O)Nc1ccc(S(=O)(=O)Nc2ccccc2N2CCOCC2)cc1	1.3% (inactive)
C/C(=N\NC(=O)CCc1c(C)n[nH]c1C)c1ccc([N+](=O)[O-])cc1	6.48% (inactive)
CCc1noc(C)c1C(=O)NCCc1c[nH]c2ccccc12	-12.2% (inactive)
Nc1cccc2c(O)cc(S(=O)(=O)O)cc12	-1.83% (inactive)
CCn1c(CN2CCCCC2)nc2cc(S(=O)(=O)N3CCCCC3)ccc21	-13.7% (inactive)
COc1ccc(/C=C/c2cc(C(F)(F)F)[nH]c(=O)n2)cc1OC	-6.08% (inactive)
O=C(/C=C\c1ccccc1)Oc1cccc2cccnc12	-9.78% (inactive)
O=c1[nH][nH]cc1C=Nc1ccc(Cl)cc1Cl	-7.34% (inactive)
CC(C)=C1C2C=CC1C(C(=O)Nc1cc(C)ccc1C)C2C(=O)O (stereo unspecified)	-4.56% (inactive)
O=[N+]([O-])c1cc(-n2cnnn2)ccc1N1CCC(Cc2ccccc2)CC1	-9.35% (inactive)
COc1ccc(N(C(=O)c2ccc(Cl)cc2)C2=CC3CCC(C2)N3C)cc1 (stereo unspecified)	-1.73% (inactive)
COc1ccc(NC(=O)NS(=O)(=O)c2ccc(C)cc2)cn1	-5.07% (inactive)
COc1ccc(C(C)=O)cc1CN(C)C	9% (inactive)
COc1cc(C(=S)N2CCN(c3cccc(Cl)c3)CC2)ccc1O	9.69% (inactive)
Cc1ccc(N(CC(=O)N2CCOCC2)S(C)(=O)=O)cc1	-3.08% (inactive)
Cn1c(=O)c(NCCO)c2c3c(cccc31)C(=O)c1ccccc1-2	-6.61% (inactive)
O=C(O)c1ccccc1NC(=O)c1cc(-c2ccccc2)nc2ccccc12	-2.32% (inactive)
COCCN(C(=O)CN1CCCc2ccccc21)c1c(N)n(Cc2ccccc2)c(=O)[nH]c1=O	3.65% (inactive)
COCCNC(=O)Nc1ccc2nc(-c3ccco3)c(-c3ccco3)nc2c1	-18.1% (inactive)
Nc1ccc2ccc3cccc[n+]3c2c1	-15.1% (inactive)
